What was measured:
[1] = biological target: T1, FEN1 (Homo sapiens, UniProt P39748); test: Fluorescence-based 5′-flap cleavage assay of FEN1 nuclease activity; assay type: biochemical
T1 construct: Full-length FEN1 (1-380) was expressed in Escherichia coli; 6His; made in house; host or cells: Escherichia coli
Experimental: MSC778 was dissolved in dimethyl sulphoxide (DMSO) to give a 10 mM stock. FEN1/EXO1: compound was dispensed into black 384-shallow well microplates (Greiner #784076). The compound was dispensed as an 11-point dose response with a 3-fold serial dilution from a top concentration of 10 mM (to give a final in-assay concentration of 100 µM). GEN1/XPG: MSC778 was dispensed into black 1536-well plates (Greiner #782076). The compound was dispensed as a 20-point dose response with a 3-fold serial dilution from a top concentration of 10 mM (to give a final in-assay concentration of 100 µM). The volume of DMSO was adjusted to ensure that each well contained 1% (v/v) DMSO in the final assay. […]
5 µl (FEN1/EXO1) or 3 µl per well (GEN1/XPG) of stop buffer (20 mM Tris pH 7.5, 300 mM EDTA) was added to all wells, then the plates were read on the CLARIOstar Plus (BMG LABTECH Ltd.) using the Fluorescein (FITC) wavelengths (Ex 483 ± 14, Em 530 ± 30, Dichroic auto/502.5) and auto focal height/gain settings.
All data analysis was carried out using Genedata Screener software. IC50 values were calculated using the SmartFit function.
A fluorescence-based 5′-flap cleavage assay, in which quenching of the fluorescence of a fluorescein amidite (FAM) moiety is alleviated by nucleolytic cleavage, was used to measure the nuclease activity of FEN1 (Fig. 1B and Supplementary Fig. S1A). […]

[2] = test system: U-2 OS cells; test: Flow cytometric analysis of apoptosis (annexin V/PI); assay type: cell-based; conditions: 0.1 μM, 72 h
Experimental: (§1) Apoptosis was measured using annexin V and propidium iodide (PI) staining using an Annexin V-fluorescein isothiocyanate (FITC) apoptosis detection kit (Thermo Fisher Scientific, V13242) according to manufacturer’s instructions.
(§2) Briefly, cells were cultured in six-well plates and treated with FEN1 inhibitor at indicated concentrations for 72 h. The supernatant and adherent cells were collected and washed twice with ice-cold PBS, then re-suspended in 100 µl of 1× binding buffer. Annexin V-FITC conjugate (5 µl) and PI (1 µl) were added, and the cells were incubated at room temperature for 15 min in the dark. After addition of 300 µl of 1× binding buffer, the cells were analyzed using a flow cytometer (CytoFLEX, Beckman).

[3] = test system: EWS cells (MHH-ES-1, RD-ES); test: as above; assay type: cell-based; conditions: 0.1 μM, 72 h
Experimental: as §1, §2

[4] = test system: DLD-1, DLD-1 BRCA2KO, SUM149PT, MDA-MB-436 cells; test: as above; assay type: cell-based; conditions: 1 μM, 72 h
Experimental: as §1, §2

[5] = test system: SUM149PT 53BP1KO and SHLD2KO cells; test: Cell viability assay (CTG), 7 days, PARP inhibitor resistant models; assay type: cell-based; conditions: less sensitive than parental
Experimental: Cells were seeded in 150 μl of media in 96-well plates or in 70 μl of media in 384-well plates pre-dosed with compounds (8–10 points dose response) with a D300e digital dispenser (Tecan) and incubated for 24 h at 37°C and 5% CO2. Cell proliferation at the end of the assay (7 days) was measured using CTG (Promega, G9243). CTG luminescence was normalized to vehicle treated control for each cell line, and data were fitted with a nonlinear regression curve (four parameters) to generate compound sensitivity curves and determine IC50 or EC50 (half maximal inhibitory/effective concentration) values as indicated.

T1 sequence (P39748 whole entry): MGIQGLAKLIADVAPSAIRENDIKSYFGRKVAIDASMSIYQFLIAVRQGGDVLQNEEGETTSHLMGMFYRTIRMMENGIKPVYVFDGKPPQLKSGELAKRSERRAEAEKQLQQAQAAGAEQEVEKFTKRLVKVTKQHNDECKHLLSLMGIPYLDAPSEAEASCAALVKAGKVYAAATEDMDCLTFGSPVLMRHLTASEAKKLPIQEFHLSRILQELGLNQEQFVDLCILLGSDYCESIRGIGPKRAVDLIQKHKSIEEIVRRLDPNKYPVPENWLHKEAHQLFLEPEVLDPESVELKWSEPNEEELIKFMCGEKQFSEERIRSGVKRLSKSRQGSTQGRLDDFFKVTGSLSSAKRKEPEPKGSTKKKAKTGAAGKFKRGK

## C[C@H](Oc1nn2c(c(O)c1=O)C(=O)N1CCOC[C@@H]1C2)c1ccc2ccc(Cl)cc2c1 [MSC778]
[1]; more potent than MSC781
  Potency on FEN1 nuclease activity relative to MSC781: 16 fold
[1]; n = 3, SD = 0.14, cognate 5′ flap substrate
  IC50: 3.2 nM
[2]
  Induction of apoptotic cell death: not
[3]
  Induction of cell death: induced apoptotic cell death
[4]
  Induction of cell death: induced cell death by apoptosis
[5]
  Change in sensitivity of SUM149PT 53BP1KO and SHLD2KO cells versus parental cells: 2 fold

From article PMC12684391, “Mechanistic insights into the monotherapy and combination potential of FEN1 inhibition in cancer therapy” (Nucleic Acids Research, 2025)
